Experimental findings from patent publication US20220218826A1, “COMPOSITION FOR TOPICAL USE FOR PHOTODYNAMIC THERAPY” (UNIVERSIDAD DE LA FRONTERA, priority 2019, published 2022) are described below.

Data set [1] deals with PDT-resistant HSC-1 cells. Nature of the data set: Detection of protoporphyrin IX (PpIX) by flow cytometry. The class given is cell-based. Conditions: 4 hours in the dark. Here is the method: For this, PDT-resistant cells, obtained as stated in example 1, were incubated with 150 mg/g MAL, plus EGCG (0.1 mg/g, 0.2 mg/g, 0.4 mg/g) or EDTA (1 mg/g, 2 mg/g, 3 mg/g) for 4 hours in the dark. Subsequently, the PpIX content in resistant cells was detected by flow cytometry, since PpIX is a fluorescent compound.
(In general: Flow cytometry measures light scatter and fluorescence of single cells or particles in a stream.)

Data set [2] concerns MAL-PDT-resistant HSC-1 cells. As to the kind of experiment: MTT cell viability after MAL-PDT with EGCG and/or EDTA as adjuvants.
Protocol: The in vitro effect of EGCG and EDTA separately as adjuvants of MAL-PDT was assessed HSC-1 cells derived from squamous skin carcinoma were used. Previously, these cells received PDT cycles, in order to select those that are resistant to PDT. Therefore, the model used corresponds to MAL-PDT-resistant HSC-1 cells.
The in vitro photodynamic conventional treatment consisted of incubating these cells with MAL 150 mg/g (photosensitiser) for 4 hours in the dark and after radiating them with 630 nm red light, with fluence of 4 J/cm^2. Cell viability was assessed 24 hours later by the MTT assay.
Subsequently, this protocol was carried out in the same way in these cells, only with the following modification: when adding MAL, different concentrations of EDTA were added (0.5 mg/g, 1 mg/g, 1.5 mg/g, and 2 mg/g) or EGCG (0.2 mg/g, 0.4 mg/g, 0.6 mg/g, 0.8 mg/g). The MAL concentration of 150 mg/g was kept in all tests and experiments with irradiation (light) fluency same to the control at 4 J/cm^2, or without radiation, were carried out.
Data set [3] deals with PDT-resistant HSC-1 cells. As to the kind of experiment: Detection of reactive oxygen species (ROS) with Muse Oxidative Stress Kit. The format is cell-based. Conditions: all assessed EGCG concentrations (0.1, 0.2, 0.4 mg/g) + MAL 150 mg/g, 4 hours, red light irradiation. The method, then: Given that in PDT, it is finally the reactive oxygen substances that cause cell damage and death, the production of these compounds was directly assessed. The same model as in example 3 was used, at the same EGCG concentrations stated in FIG. 3A, in order to assess the production of ROS generated in MAL-PDT. Following the previous methodology, after incubating the cells for 4 hours, these received red light irradiation. For ROS detection, these were incubated with a probe (Muse™ Oxidative Stress Kit|MCH100111—Merck Millipore) for 30 minutes and was assessed in a cell analyzer.

The structures appear in SMILES notation. Some results are limits rather than exact numbers.

`O=C(O)CN(CCN(CC(=O)O)CC(=O)O)CC(=O)O` [EDTA, ethylenediaminetetraacetic acid]: the “population that contained PpIX” value in data set [1] (MAL 150 mg/g plus EDTA (1, 2, 3 mg/g)) is on record as at most 13%. Further, in data set [2] (EDTA, only at 2 mg/g, + MAL 150 mg/g, light 4 J/cm^2), the “effect of EDTA in MAL-PDT on viability” value is on record as “significant”.
Turning to `O=C(O[C@@H]1Cc2c(O)cc(O)cc2O[C@@H]1c1cc(O)c(O)c(O)c1)c1cc(O)c(O)c(O)c1` [EGCG, epigallocatechin galate], the “ROS concentration relative to the control” value in data set [3] is reported as “doubled or even tripled”. The “population that contained PpIX” value in data set [1] (MAL 150 mg/g plus EGCG (0.1, 0.2, 0.4 mg/g)) is at most 18%. Besides, the survival rate in data set [2] (EGCG from 0.4 mg/g + MAL 150 mg/g, light 4 J/cm^2) is reported as 0.
With `COC(=O)CCC(=O)CN` [MAL, methyl aminolevulinate], the “population that contained PpIX” value in data set [1] (MAL 150 mg/g alone) is listed as 5%. Further, the “HSC-1 resistant cells survived PDT” value in data set [2] (control MAL-PDT: MAL 150 mg/g, 4 hours in the dark, 630 nm red light, 4 J/cm^2, MTT 24 hours later) is around 50%.
